Measured values as given in patent publication US10576056B2, “Compounds for treating cancer and methods of use thereof” (MCMASTER UNIVERSITY, priority 2015, dated 2020).
Like-named read-outs stand apart in the source and are kept apart here.

Key:
Assay type in all cases: cell-based
[1] = system: MCF7 cells; test: MTT proliferation assay, MCF7 breast cancer cells; details: for effect on proliferation of MCF7 cells: increasing concentrations, 24 and 48 hours, 10% charcoal-stripped phenol-free serum, dose dependent; for effect on proliferation / IC50: MCF7 cells; for IC50: Homo sapiens
Protocol: (§1) First, the role of THs on breast cancer cell proliferation was evaluated using escalating doses of tri-iodothyronine (T3) and thyroxine (T4). […] In particular, the compound of Formula (I) or compound of Formula (Ia) is dronedarone. Dronedarone was selected as it is an FDA approved anti-arrhythmic drug.
(§2) The effect of increasing concentrations of T3 and T4 on the proliferation of 3 breast cancer cell lines (MCF 7, MD-MB-231, BT-474) in 10% charcoal-stripped phenol-free serum was evaluated at 24 and 48 hours following standard MTT-assay protocols. Increasing doses of PTU and dronedarone were added to cells with 200 μM T3 or T4 to measure proliferation of MCF-7 and MD-MB-231 cells using MTT assays.

[2] = system: MD-MB-231 cells; test: MTT proliferation assay, MD-MB-231 breast cancer cells; details: for effect on proliferation of MD-MB-231 cells: increasing concentrations, 24 and 48 hours, 10% charcoal-stripped phenol-free serum, dose dependent
Protocol: as §1, §2

[3] = system: BT-474 cells; test: MTT proliferation assay, BT-474 breast cancer cells; details: increasing concentrations, 24 and 48 hours, 10% charcoal-stripped phenol-free serum, dose dependent
Protocol: as §1, §2

N[C@@H](Cc1cc(I)c(Oc2ccc(O)c(I)c2)c(I)c1)C(=O)O [T3, tri-iodothyronine]
effect on proliferation of MCF7 cells [1]: statistically significant increase | effect on proliferation of MD-MB-231 cells [2]: statistically significant increase | effect on proliferation of BT-474 cells [3]: statistically significant increase

N[C@@H](Cc1cc(I)c(Oc2cc(I)c(O)c(I)c2)c(I)c1)C(=O)O [T4, thyroxine]
effect on proliferation of MCF7 cells [1]: statistically significant increase | effect on proliferation of MD-MB-231 cells [2]: statistically significant increase | effect on proliferation of BT-474 cells [3]: statistically significant increase

CCCCc1oc2ccc(NS(C)(=O)=O)cc2c1C(=O)c1ccc(OCCCN(CCCC)CCCC)cc1 [dronedarone]
effect on proliferation ([1]; 10 μM dronedarone in combination with T3): significantly reduced proliferation | effect on proliferation ([1]; 10 μM dronedarone in combination with T4): significantly reduced proliferation | effect on proliferation ([2]; MD-MB-231 cells, 10 μM dronedarone in combination with T3): significantly reduced proliferation | effect on proliferation ([2]; MD-MB-231 cells, 10 μM dronedarone in combination with T4): significantly reduced proliferation | effect on cell proliferation ([2]; dronedarone alone, without T3/T4 (FIG. 13: MDA-MB-231 cells, 24 hours)): not affected

CCCc1cc(=O)[nH]c(=S)[nH]1 [PTU, propylthiouracil]
IC50 ([1]; in the presence of T3 (FIG. 10), read-out: IC50 (proliferation)): 12 µM | IC50 ([1]; in the presence of T4 (FIG. 10), read-out: concentration reducing proliferation by 50%): ~5 µM | IC50 ([2]; Homo sapiens, PTU alone, without T3/T4 (FIG. 11: MDA-MB-231 cells, 24 hours), read-out: concentration reducing cell proliferation by 50%): > 12 µM | IC50 ([2]; MD-MB-231 cells, in the presence of T3 (FIG. 10), read-out: IC50 (proliferation)): 12 µM | IC50 ([2]; MD-MB-231 cells, in the presence of T4 (FIG. 10), read-out: concentration reducing proliferation by 50%): ~5 µM
